US10947129B2, “Fluid disinfection with ultraviolet radiation and a chemical disinfectant” (Trojan Technologies, priority 2015, dated 2021)
Entries after “also recorded” stand apart in the source; their conditions may differ.

Legend:
[1] = PAA demand/decay in WWTP secondary effluent (Equation 1 fit); format: physicochemical; settings: for Decay (k, 1/min) / Demand (D, mg/L): PAA only disinfection
Experimental: (§1) In this study, secondary effluent samples were collected and treated with PAA to achieve residual concentration*contact time (CTs) of 2.5-50 mg·min/L. PAA tests were conducted in clean glass beakers (500 or 2000 mL), and mixed continuously using a magnetic stirrer (600 rpm). Measurements of PAA residuals were collected over time, and E. coli samples were collected following PAA quenching using sodium bisulfite. The four samples collected between September 22-24 were each treated with PAA (CO=5.0 mg/L) in order to estimate the demand/decay for each sample. […] The demand/decay kinetic parameters were recalculated using the experimental results from each inactivation experiment.
PAA residuals were fitted to a demand/decay curve using Equation 1. The PAA CT (mg·min/L) was determined by integrating the area under the demand/decay curve and is calculated using Equation 2. C=(C0−D)e^−kt [Equation 1] where, • C is the concentration of PAA (mg/L) at time t (min) • C0 is initial concentration of PAA (mg/L) • D is the instantaneous demand of PAA (mg/L) • k is the decay rate constant of PAA (1/min) • t is the contact time (min)

E. coli [2] = test: E. coli inactivation by PAA alone in WWTP secondary effluent (bench test); format: cell-based, Escherichia coli
Experimental: as §1
[formula] where, • CT is the integral PAA dose (concentration*contact time); mg·min/L (Santoro et al., 2015) PAA and UV Disinfection Kinetics
To develop an disinfection kinetic model, the concentration of viable for E. coli can be plotted against either PAA—CT dose or UV fluence and the data fitted using the double exponential inactivation model, described in Equation 3. […]
The E. coli inactivation kinetics by PAA was calculated for each sample by plotting the viable concentration of E. coli on a log scale (y-axis) against the PAA—CT dose (x-axis), and is shown in FIG. 11. […]

E. coli [3] = test: Combined UV and PAA disinfection tests on WWTP secondary effluent; format: cell-based, Escherichia coli
From the text: For the UV+PAA experiment, effluent was first irradiated to UV fluences of 10, 15 or 20 mJ/cm^2, then dosed with PAA as described above. For the PAA+UV experiment, effluent was first dosed with PAA as described above. After set durations, portions of the sample were removed, PAA quenched with sodium bisulfite, and then subjected to UV fluences of 10, 15 or 20 mJ/cm^2. For the simultaneous PAA+UV experiment, two different scenarios were investigated. The first involved dosing PAA at the onset of UV irradiation, irradiating for a set duration, and then removing the sample from UV exposure and continuing to stir until a desired PAA contact time was achieved. The second scenario involved first dosing PAA and allowing it to stir for a period prior to subjecting it to UV irradiation.
Three distinct scenarios were performed with respect to testing the combined UV and PAA disinfection processes: UV prior to PAA (UV→PAA), PAA prior to UV (PAA→UV), simultaneous UV and PAA (UV+PAA). For the UV→PAA tests, UV fluences of 10, 15, and 20 mJ/cm^2 were applied prior to PAA addition, and PAA CTs ranged from 5-25 mg·min/L. Each of FIGS. 14-26 illustrates the results for viable E. coli as a function of PAA CT exposure with different levels of UV fluence applied, prior to PAA treatment.

total coliform = settings: cited from earlier work
[4] = low UV fluence (13 mJ/cm^2), PAA added before or after UV irradiation; cited from earlier work

CC(=O)OO [PAA, peracetic acid]
Decay (k, 1/min) ([1]; sample Sept. 22 - AM): 0.063 min⁻¹ | Demand (D, mg/L) ([1]; sample Sept. 22 - AM): 3.58 mg/L | Decay (k, 1/min) ([1]; sample Sept. 22 - PM): 0.057 min⁻¹ | Demand (D, mg/L) ([1]; sample Sept. 22 - PM): 2.60 mg/L | Decay (k, 1/min) ([1]; sample Sept. 24 - AM): 0.056 min⁻¹ | Demand (D, mg/L) ([1]; sample Sept. 24 - AM): 3.50 mg/L | Decay (k, 1/min) ([1]; sample Sept. 24 - PM): 0.058 min⁻¹ | Demand (D, mg/L) ([1]; sample Sept. 24 - PM): 2.91 mg/L | decay rates ([1]; all samples): ca. 0.060 l/min | PAA demand ([1]; samples collected in the afternoon): ca. 2.75 mg/L | PAA demand ([1]; samples collected in the morning): ca. 3.5 mg/L | PAA CT dose required to meet disinfection target (E. coli [2]; target 63 MPN/100 mL (half the 30-day geomean permit), model from all data): 49.2 mg·min/L | PAA CT dose required to meet disinfection target (E. coli [2]; target 244 MPN/100 mL (half the daily maximum permit), model from poorest inactivation data): 36.0 mg·min/L | attainment of E. coli disinfection targets (E. coli [3]; PAA prior to UV (PAA→UV), PAA CT 10-23 mg·min/L, UV 10, 15, 20 mJ/cm^2): did NOT always result in the geometric mean or maximum disinfection targets being met | attainment of E. coli disinfection targets (E. coli [3]; UV prior to PAA (UV→PAA), UV 10, 15, 20 mJ/cm^2, PAA CT 5-25 mg·min/L): both the maximum and geometric mean disinfection targets being met for at least one combination of fluence and CT; also recorded: consistently met disinfection targets | attainment of E. coli disinfection targets (E. coli [3]; simultaneous UV+PAA, UV 10, 15, 20 mJ/cm^2, PAA CT 15-30 mg·min/L): could not achieve the geomean or maximum disinfection targets | inactivation of total coliform (total coliform; PAA 2 mg/L applied immediately before UV fluence of 192 mJ/cm^2): over 4 log | attainment of target disinfection levels (total coliform; PAA concentration between 2 and 8 mg/L, alone): unable to reach the target disinfection levels | synergistic benefit of PAA combined with UV [4]: no synergistic benefit observed
